In PMC12881674, “Activation of TRPV3 channels in bladder cancer cells stimulates ATP release” (Molecular Pharmacology, 2025):

Assays:
parental HEK cells = test: Ca2+ assays (fluo-4 and fura-2) in parental HEK cells lacking TRPV3; type: cell-based, human; settings: concentrations up to 50 μM
Method: All fluorometric Ca^2+ assays were performed in HBS buffer at room temperature. The compounds of the Enamine Diversity Set were diluted in a buffer composed of 150 mM NaCl and 20 mM HEPES and added to the cells at a final concentration of 25 μM (0.5% DMSO). For the primary compound screening and the generation of concentration-response analyses, a robotic liquid handling station (Freedom Evo 150; Tecan) with a built-in custom-made fluorescence plate imager was used. HEKTRPV3 and bladder cancer cell lines were harvested and loaded with 4 μM fluo-4/AM (Invitrogen; Fisher Scientific) in cell culture medium for 30 minutes at 37 °C. […] Fluorescence was excited using a 470-nm light-emitting diode, and emitted light was imaged through a 515-nm–long pass filter with a cooled Zyla 5.5 camera (Andor). Fluorescence was recorded and processed under the control of the μ-Manager 2.0 gamma software (https://micro-manager.org.[28]). After recording baseline fluorescence, compounds were dispensed into the wells via the liquid handling device. […] For further analysis, fluorescence signals were calculated for each well, corrected for background intensities and normalized to the initial signals. […] Fluorescence signals were excited with a fiber-coupled monochromator device (Polychrome V; Till Photonics) at 340, 358, and 380 nm and calibrated as described before.[29] […]

KU-19-19 cells = test: ATPlite luminescence assay of extracellular ATP; type: cell-based, human; settings: 50 μM AV3-1, 30 minutes
Method: KU-19-19 cells (1 × 10^5 per well) were plated in 24-well plates and cultured for 24 hours. Medium was removed, and wells were washed with PBS before adding 1 mL of drugs dissolved in PBS. After 30 minutes, 100 μL of the supernatant was transferred to a 96-well plate. ATP content was measured using the ATPlite luminescence ATP assay (Revvity, catalog number 6016943) following manufacturer’s instructions. Luminescence was recorded using a Polarstar Omega reader and normalized to control wells without addition of drugs.
Fig. 4 TRPV3 activation by AV3-1 was enhanced by cholesterol supplementation and causes ATP release in KU-19-19 bladder cancer cells. […] Current amplitudes were recorded using voltage ramps from −100 mV to +100 mV (500-millisecond duration) and expressed as current density (pA/pF) measured at +100 mV and −100 mV. (C) Quantification of current densities (pA/pF) at −100 mV (inward current) and +100 mV (outward current) at the time points (1, 2) as indicated in (A, B). […] Statistical significance was determined using Kruskal-Wallis ANOVA followed by Conover test; ∗P < .05. […] Inset: Box-and-whisker plots of AV3-1 potencies under control conditions (open box) and following cholesterol supplementation (gray box), derived from individual concentration-response fits and expressed as pEC50 (-log10(EC50 [M])). […]

How did the “off-target effects on parental HEK cells” value (parental HEK cells) turn out when COC(=O)C12CN(Cc3ccccc3)CC1(C(=O)OC)CN(Cc1ccccc1)C2 (centres unmarked) [AV3-1] was run?
The value was “no detectable off-target effects”.

What about the “ATP release compared with untreated control cells” value (KU-19-19 cells) of the same molecule?
The value was “statistically significant increased ATP release”.
